# Measurements published in US6030960A, “Method of treating hepatitis virus infections” (priority 1998, dated 2000).
# Where two headings read alike, the source gives them in different places.
# Columns and labels:
# [1] = Cytotoxicity in HBV persistently infected human HEP G2 cells, neutral red dye uptake (Table 5); format: cell-based; conditions: human, hep-g2 cells
# In short: (§1)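 HBV-transfected HEP-G2 monolayers in RPMI-1640 were given compound at four serial concentrations in triplicate for nine days at 37 °C, with periodic medium replacement. Toxicity from 0.01% neutral red uptake (A510), as percent of nine untreated control wells on the same plate.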
# [2] = test system: granulocyte/macrophage (CFU-GM); test: Cytotoxicity: inhibition of mouse granulocyte/macrophage (CFU-GM) colony formation; format: cell-based; conditions: read-out: inhibitory concentration 50% for colony formation (IC50)
# Description: CP-51 and AZT were assayed for cytotoxicity by inhibition of mouse precursor erythrocyte (CFU-E) and granulocyte/macrophage (CFU-GM) cell colony formation. Mouse bone marrow precursor cells were suspended in soft-agar-RPMI-1640 medium supplmented with cell growth factors and serial concentrations of alkyl lipid.
# [3] = test system: Friend-Leukemia virus; test: Inhibition of retrovirus-induced splenomegaly in Friend-Leukemia virus infected mice (Table 9); format: in vivo
# Description: Mice were infected I.P. with Friend-Leukemia virus and not treated or treated I.P. with daily doses of phospholipid. After 14 days infection and treatment, the mice were sacrificed, the spleens were removed and weighed to determine the percentage, of control splenomegaly. […] Even a single dose of 25 mg/kg CP-51 inhibited splenomegaly by 36%.
# [4] = test system: HEP G2 cells persistently infected with HBV; test: Cytotoxicity in HBV persistently infected human HEP G2 cells, neutral red dye uptake (Table 5); format: cell-based
# In short: as §1
# [5] = test system: mouse precursor erythrocyte (CFU-E); test: Cytotoxicity: inhibition of mouse precursor erythrocyte (CFU-E) colony formation; format: cell-based
# Description: CP-51 and AZT were assayed for cytotoxicity by inhibition of mouse precursor erythrocyte (CFU-E) and granulocyte/macrophage (CFU-GM) cell colony formation.
# [6] = test system: HIV-1; format: in vivo; conditions: rat, single oral dose of 15 mg/kg by gavage
# Description: The biologic activity of alkyl lipid CP-51 was evaluated in vivo. Sprague Dawley rats were fasted for 18 hours and received a single oral dose of 15 mg/kg of the alkyl lipid CP-51 by gavage. An in-dwelling carotid catheter was used to harvest whole blood at various times post-dose. The plasma containing the alkyl lipid was diluted 1:2 to 1:128 in phosphate buffered saline and assayed for biologic activity using the HIV-1 syncytial plaque test. CEM-SS cell monolayers were infected with HIV-1 and overlaid with RPMI-1640 medium containing serial dilutions of plasma. After incubation for five days at 37° C., the number of HIV-1 syncytial plaques was counted as previously described (Kucera et al., AIDS Res. Human Retroviruses, 6: 491-501, (1990)).
# [7] = Trial 1, read-out: % of Control Neutral Red Dye Uptake
# [8] = Trial 3, read-out: % of Control Neutral Red Dye Uptake
# [9] = % of Control Neutral Red Dye Uptake
smiles,measurement,setting,value
"Nc1ccn([C@H]2CC[C@@H](CO)O2)c(=O)n1 [2',3'-dideoxycytidine, 2', 3'-dideoxycytidine, reference compound]","viability at 216 h, 10 µM","[1]; Trial 1, 10 μM, read-out: % of Control Neutral Red Dye Uptake",101 ± 2%
same,"viability at 216 h, 30 µM","[1]; Trial 1, 30 μM, read-out: % of Control Neutral Red Dye Uptake",100 ± 1%
same,"viability at 216 h, 100 µM",[1]; [7],97 ± 2%
same,"viability at 216 h, 300 µM",[1]; [7],34 ± 4%
same,"viability at 216 h, 10 µM","[1]; Trial 2, 10 μM, read-out: % of Control Neutral Red Dye Uptake",101 ± 3%
same,"viability at 216 h, 30 µM","[1]; Trial 2, 30 μM, read-out: % of Control Neutral Red Dye Uptake",102 ± 2%
same,"viability at 216 h, 300 µM","[1]; Trial 2, read-out: % of Control Neutral Red Dye Uptake",40 ± 4%
same,"viability at 216 h, 1000 µM","[1]; Trial 2, 1000 μM, read-out: % of Control Neutral Red Dye Uptake",12 ± 5%
same,"viability at 216 h, 10 µM","[1]; Trial 3, 10 μM, read-out: % of Control Neutral Red Dye Uptake",100 ± 1%
same,"viability at 216 h, 30 µM","[1]; Trial 3, 30 μM, read-out: % of Control Neutral Red Dye Uptake",102 ± 1%
same,"viability at 216 h, 100 µM",[1]; [8],99 ± 2%
same,"viability at 216 h, 300 µM",[1]; [8],35 ± 2%
"CCCCCCCCCCCCCCCCCC(=O)NCC(COP(=O)([O-])OCC[N+](C)(C)C)OCC (racemic) [CP-51, rac-3-octadecanamido-2-ethyoxy-1-propylphosphocholine]",IC50,[2],11 µg/mL
same,inhibition of retrovirus-induced splenomegaly,[3]; 12.5 mg/kg/day intraperitoneally,43%
same,% of Control Splenomegaly,"[3]; 12.5 mg/kg/day, daily treatment",43 % of Control
same,% of Control Splenomegaly,"[3]; 25 mg/kg, one treatment",36 % of Control
same,anti-retrovirus activity in infected animals,[3]; in words,has anti-retrovirus activity in infected animals
same,inhibition of retrovirus-induced splenomegaly,[3]; single dose of 25 mg/kg,36%
same,Cell toxicity (greater than 50% depression of dye uptake),[4],did not occur
same,% of Control Neutral Red Dye Uptake,"[4]; human, hep-g2 cells, 216 h, 3 µM",101 ± 1 % of Control
same,"viability at 216 h, 3 µM",[1]; [9],98 ± 3%
same,"viability at 216 h, 10 µM",[1]; [9],102 ± 1%
same,"viability at 216 h, 30 µM",[1]; [9],100 ± 3%
same,cytotoxicity relative to AZT,"[5]; CFU-E and CFU-GM, in words",significantly less cytotoxic than AZT
same,IC50,"[5]; Mus musculus, Erythrocyte, read-out: inhibitory concentration 50% for colony formation (IC50)",41 µg/mL
same,absorption into the blood,[6],rapidly absorbed into the blood of rats
same,biologically active concentrations in the blood (plasma),[6]; HIV-1 syncytial plaque test,biologically active concentrations of the compound CP-51 were obtained in the blood (plasma)
